Earlier results as cited in publication PMC5377275 (ACS Omega, 2017).

Test system: cytosolic lysates

O=C(O)COc1ccc(Br)cc1/C=C1\SC(=S)N(Cc2cccnc2)C1=O [SKPin C1]
Effect of inhibitor on ubiquitination of KGSYGK(FAM)RRR: impaired

RRRG
Ubiquitination of primary degron in HeLa cell lysates (lysine residue positioned at the C-terminus): rapidly ubiquitinated

KGSYGK(FAM)RRR
Ubiquitination of p53/MDM2-based peptide in cytosolic lysates: readily ubiquitinated

O=C1c2ccccc2-c2nc3nonc3nc21 [SMER3]
Effect of inhibitor on ubiquitination of KGSYGK(FAM)RRR: impaired
